Assay results from PubChem BioAssay AID248 (DTP/NCI, 2004).
Toxic doses and inconclusive results are not listed. Rule as the data show it: active = T/C of 150% or more; inactive = T/C below 125%.

Tested on: L1210 leukemia ip in BDF1 mice, survival T/C
Assay: NCI In Vivo Anticancer Drug Screen. Data for tumor model L1210 Leukemia (intraperitoneal) in B6D2F1 (BDF1) mice
Details: endpoint: mean survival time, higher = longer survival
Procedure, shortened: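 Transplantable tumor model; survival measured in treated vs vehicle control mice. Value = treated/control.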

[1] = dose: 100.0 mg/kg/injection, schedule: Q04DX003 (ip), vehicle: Klucel (hydroxypropylcellulose) (HPC)
[2] = dose: 200.0 mg/kg/injection, schedule: Q04DX003 (ip), vehicle: Klucel (hydroxypropylcellulose) (HPC)
[3] = dose: 400.0 mg/kg/injection, schedule: Q04DX003 (ip), vehicle: Klucel (hydroxypropylcellulose) (HPC)

Measured: T/C

Cc1c2oc3c(C)ccc(C(=O)NC4C(=O)NC(C(C)C)C(=O)N5CCCC5C(=O)N(C)CC(=O)N(C)C(C(C)C)C(=O)OC4C)c3nc-2c(C(=O)NC2C(=O)NC(C(C)C)C(=O)N3CCCC3C(=O)N(C)CC(=O)N(C)C(C(C)C)C(=O)OC2C)cc1=O (stereo unspecified)
inactive: dose: 0.1 mg/kg/injection, schedule: Q01DX009 (ip), vehicle: saline + alcohol 101 % of control | dose: 0.2 mg/kg/injection, schedule: Q01DX001 (ip), vehicle: saline + alcohol 102 % of control | dose: 0.2 mg/kg/injection, schedule: Q01DX009 (ip), vehicle: saline + alcohol 107 % of control | dose: 0.25 mg/kg/injection, schedule: Q01DX009 (ip), vehicle: saline + alcohol 101 % of control | dose: 0.4 mg/kg/injection, schedule: Q01DX001 (ip), vehicle: saline + alcohol 104 % of control | dose: 0.4 mg/kg/injection, schedule: Q01DX009 (ip), vehicle: saline + alcohol 112 % of control | dose: 0.5 mg/kg/injection, schedule: Q01DX009 (ip), vehicle: saline + alcohol 97 % of control | dose: 0.6 mg/kg/injection, schedule: Q04DX003 (ip), vehicle: saline + alcohol 101 % of control | dose: 0.8 mg/kg/injection, schedule: Q01DX001 (ip), vehicle: saline + alcohol 104 % of control | dose: 1.0 mg/kg/injection, schedule: Q01DX009 (ip), vehicle: saline + alcohol 93 % of control | dose: 1.2 mg/kg/injection, schedule: Q04DX003 (ip), vehicle: saline + alcohol 109 % of control | dose: 1.25 mg/kg/injection, schedule: Q04DX003 (ip), vehicle: saline + alcohol 96 % of control | dose: 1.6 mg/kg/injection, schedule: Q01DX001 (ip), vehicle: saline + alcohol 106 % of control | dose: 2.0 mg/kg/injection, schedule: Q01DX009 (ip), vehicle: saline + alcohol 106 % of control | dose: 2.4 mg/kg/injection, schedule: Q04DX003 (ip), vehicle: saline + alcohol 119 % of control | dose: 2.5 mg/kg/injection, schedule: Q04DX003 (ip), vehicle: saline + alcohol 97 % of control | dose: 3.2 mg/kg/injection, schedule: Q01DX001 (ip), vehicle: saline + alcohol 111 % of control | dose: 4.0 mg/kg/injection, schedule: Q01DX009 (ip), vehicle: saline + alcohol 103 % of control | dose: 5.0 mg/kg/injection, schedule: Q04DX003 (ip), vehicle: saline + alcohol 105 % of control | dose: 6.4 mg/kg/injection, schedule: Q01DX001 (ip), vehicle: saline + alcohol 117 % of control | dose: 10.0 mg/kg/injection, schedule: Q04DX003 (ip), vehicle: saline + alcohol 106 % of control | dose: 20.0 mg/kg/injection, schedule: Q04DX003 (ip), vehicle: saline + alcohol 116 % of control | dose: 12.5 micrograms/kg/injection, schedule: Q01DX009 (ip), vehicle: saline + alcohol 101 % of control | dose: 50.0 micrograms/kg/injection, schedule: Q01DX009 (ip), vehicle: saline + alcohol 103 % of control | dose: 75.0 micrograms/kg/injection, schedule: Q04DX003 (ip), vehicle: saline + alcohol 104 % of control | dose: 150.0 micrograms/kg/injection, schedule: Q04DX003 (ip), vehicle: saline + alcohol 102 % of control | dose: 300.0 micrograms/kg/injection, schedule: Q04DX003 (ip), vehicle: saline + alcohol 106 % of control

CC1(C)N=C(N)N=C(N)N1c1cc(Cl)ccc1Cl
inactive: dose: 12.0 mg/kg/injection, schedule: Q04DX003 (ip), vehicle: saline 117 % of control | dose: 12.5 mg/kg/injection, schedule: Q01DX001 (ip), vehicle: saline 98 % of control | dose: 25.0 mg/kg/injection, schedule: Q01DX001 (ip), vehicle: saline 90 % of control | dose: 25.0 mg/kg/injection, schedule: Q01DX009 (ip), vehicle: saline 101 % of control | dose: 25.0 mg/kg/injection, schedule: Q04DX003 (ip), vehicle: saline 100 % of control | dose: 50.0 mg/kg/injection, schedule: Q01DX001 (ip), vehicle: saline 98 % of control | dose: 50.0 mg/kg/injection, schedule: Q01DX009 (ip), vehicle: saline 97 % of control | dose: 50.0 mg/kg/injection, schedule: Q04DX003 (ip), vehicle: saline 103 % of control

CC(C)(C)C(=O)OCn1cnc(C#N)c1[N+](=O)[O-]
inactive: dose: 100.0 mg/kg/injection, schedule: Q01DX001 (ip), vehicle: acetone 92 % of control | dose: 200.0 mg/kg/injection, schedule: Q01DX001 (ip), vehicle: acetone 101 % of control | dose: 400.0 mg/kg/injection, schedule: Q01DX001 (ip), vehicle: acetone 92 % of control

Clc1nc(Cl)nc(-c2cccn2-c2ccccc2)n1
inactive: dose: 6.25 mg/kg/injection, schedule: Q01DX009 (ip), vehicle: saline with Tween-80 92 % of control | dose: 100.0 mg/kg/injection, schedule: Q04DX003 (ip), vehicle: acetone 101 % of control | dose: 100.0 mg/kg/injection, schedule: Q04DX003 (ip), vehicle: saline 101 % of control | dose: 200.0 mg/kg/injection, schedule: Q04DX003 (ip), vehicle: acetone 86 % of control | dose: 400.0 mg/kg/injection, schedule: Q04DX003 (ip), vehicle: saline 93 % of control

CN1CN(c2ccccc2)C2(CCN(CCc3cc4ccccc4o3)CC2)C1=O
inactive: dose: 100.0 mg/kg/injection, schedule: Q01DX001 (ip), vehicle: Klucel (hydroxypropylcellulose) (HPC) 96 % of control | dose: 200.0 mg/kg/injection, schedule: Q01DX001 (ip), vehicle: Klucel (hydroxypropylcellulose) (HPC) 95 % of control | dose: 400.0 mg/kg/injection, schedule: Q01DX001 (ip), vehicle: Klucel (hydroxypropylcellulose) (HPC) 101 % of control

NC(=S)N/N=C/c1cccn1Cc1cc2c(cc1[N+](=O)[O-])OCO2
inactive: dose: 25.0 mg/kg/injection, schedule: Q04DX002 (ip), vehicle: Klucel (hydroxypropylcellulose) (HPC) 100 % of control | dose: 50.0 mg/kg/injection, schedule: Q04DX002 (ip), vehicle: Klucel (hydroxypropylcellulose) (HPC) 96 % of control | dose: 100.0 mg/kg/injection, schedule: Q04DX002 (ip), vehicle: Klucel (hydroxypropylcellulose) (HPC) 104 % of control

COc1ccc([N+](=O)[O-])cc1N
inactive: [1] 101 % of control | [2] 104 % of control | [3] 90 % of control

Clc1ccccc1C(CI)c1ccccc1Cl
inactive: dose: 5.0 mg/kg/injection, schedule: Q01DX001 (ip), vehicle: other 98 % of control | dose: 10.0 mg/kg/injection, schedule: Q01DX001 (ip), vehicle: other 98 % of control | dose: 20.0 mg/kg/injection, schedule: Q01DX001 (ip), vehicle: other 98 % of control | dose: 40.0 mg/kg/injection, schedule: Q01DX001 (ip), vehicle: other 100 % of control | dose: 80.0 mg/kg/injection, schedule: Q01DX001 (ip), vehicle: other 100 % of control

Nc1ccc2ncsc2c1
inactive: dose: 100.0 mg/kg/injection, schedule: Q01DX009 (ip), vehicle: saline with Tween-80 114 % of control | dose: 100.0 mg/kg/injection, schedule: Q04DX003 (ip), vehicle: saline with Tween-80 102 % of control | dose: 200.0 mg/kg/injection, schedule: Q01DX009 (ip), vehicle: saline with Tween-80 88 % of control | dose: 200.0 mg/kg/injection, schedule: Q04DX003 (ip), vehicle: saline with Tween-80 95 % of control | dose: 400.0 mg/kg/injection, schedule: Q04DX003 (ip), vehicle: saline with Tween-80 98 % of control

CCC[CH2][Sn]([CH2]CCC)([S]C#N)[S]C#N
inactive: dose: 3.12 mg/kg/injection, schedule: Q04DX002 (ip), vehicle: gum acacia 101 % of control | dose: 6.25 mg/kg/injection, schedule: Q04DX002 (ip), vehicle: gum acacia 96 % of control | dose: 12.5 mg/kg/injection, schedule: Q04DX002 (ip), vehicle: gum acacia 96 % of control

CCOC(=O)/C(O)=C/c1nc2ccccc2nc1C
inactive: [1] 105 % of control | [2] 96 % of control | [3] 99 % of control
